According to patent publication US11413348B2, “Low molecular weight cationic lipids for oligonucleotide delivery” (SIRNA THERAPEUTICS, INC., priority 2010, dated 2022):

What follows are compounds tested against T1, serum ApoE (Macaca mulatta, UniProt Q28502) (assay: Heparin Sepharose HI-TRAP binding assay). Conditions: HI-TRAP binding upon rhesus serum incubation, 2×DPBS conditions.
T1 construct: from tissue; host or cells: rhesus monkey serum
Design: species or system rhesus monkey
Protocol: Lipid nanoparticles (LNP) with neutral surface charge are not retained after injection onto heparin sepharose with 1× Dulbecco's phosphate buffered saline (DPBS) as the running buffer but elute in the column void volume. […] Lipid nanoparticles with surface bound ApoE bind to heparin sepharose with high affinity and are eluted only at high salt (1M NaCl).
Lipid nanoparticles were incubated at 37° C. for 20 min at a final siRNA concentration of 50 μg/mL with various concentrations of either purified or recombinant human apolipoprotein E or 0.1-50% rat/mouse/rhesus monkey/human serum in 1× Dulbccco's phosphate buffered saline (DPBS). After incubation with ApoE or serum LNP samples were diluted 10-fold using 1×DPBS and analyzed by heparin sepharose chromatography. Peak area of retained LNP (after subtraction of appropriate blank signals) is compared to total peak area of LNP control without ApoE and/or serum incubation to determine the percentage of the LNP which undergoes shift to high affinity heparin interaction after incubation with ApoE/serum.
A heparin sepharose HI-TRAP™ chromatography column (GE Healthcare; 1 mL bed volume) is equilibrated with either 1× or 2× Dulbecco's PBS; the higher 2× salt concentration is used for LNPs with higher intrinsic retention on heparin sepharose (presumably due to higher positive surface charge). • Mobile Phase A: 1× or 2×DPBS • Mobile Phase B: 1M NaCl in 10 mM sodium phosphate buffer, pH 7.0 • 100% A delivered isocratically for 10 min followed by step gradient to 100% B; hold for additional 10 min; step gradient back to 100% A and reequilibrate for additional 10 min prior to injection of next sample • Flow rate: 1 mL/min • Sample injection volume: 50 μL. • Detection: UV @260 nm HI-TRAP™ Binding Results Upon Rhesus Serum Incubation (2×DPBS Conditions)

T1 sequence (Q28502 19-295): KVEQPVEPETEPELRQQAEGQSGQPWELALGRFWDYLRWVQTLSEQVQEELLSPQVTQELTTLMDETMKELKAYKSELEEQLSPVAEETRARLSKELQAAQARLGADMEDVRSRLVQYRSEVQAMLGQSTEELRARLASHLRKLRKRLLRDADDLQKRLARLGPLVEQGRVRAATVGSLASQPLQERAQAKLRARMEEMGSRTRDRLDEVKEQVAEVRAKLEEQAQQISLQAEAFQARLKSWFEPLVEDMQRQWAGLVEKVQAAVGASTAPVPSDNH

| SMILES | % Bound [%] |
| --- | --- |
| CCCCC/C=C\C/C=C\CCCCCCCCC1(CCCCCCCC/C=C\C/C=C\CCCCC)OCC(CCN(C)C)O1 (centres unmarked) [Compound 45, DLinKC2DMA, reference compound] | 58 |
| CCCCC/C=C\C/C=C\CCCCCCCCC(CCCCCCCC/C=C\C/C=C\CCCCC)OC(=O)CCCN(C)C [Compound 46, MC3, reference compound] | 7 |

What follows are compounds tested on mRNA transcript for the firefly (Photinus pyralis) luciferase gene (assay: Mouse in vivo evaluation of efficacy (luciferase siRNA LNPs, liver luminescence)). Conditions: Luc siRNA RDV, tail vein, 48 hours post dose, FIG. 1.
Protocol: LNPs utilizing Compounds 1-44, in the nominal compositions described immediately above, were evaluated for in vivo efficacy. The siRNA targets the mRNA transcript for the firefly (Photinus pyralis) luciferase gene (Accession #M15077). […] The in vivo luciferase model employs a transgenic mouse in which the firefly luciferase coding sequence is present in all cells. ROSA26-LoxP-Stop-LoxP-Luc (LSL-Luc) transgenic mice licensed from the Dana Farber Cancer Institute are induced to express the Luciferase gene by first removing the LSL sequence with a recombinant Ad-Cre virus (Vector Biolabs). Due to the organo-tropic nature of the virus, expression is limited to the liver when delivered via tail vein injection. Luciferase expression levels in liver are quantitated by measuring light output, using an IVIS imager (Xenogen) following administration of the luciferin substrate (Caliper Life Sciences). Pre-dose luminescence levels are measured prior to administration of the RDVs. Luciferin in PBS (15 mg/mL) is intraperitoneally (IP) injected in a volume of 150 μL. After a four minute incubation period mice are anesthetized with isoflurane and placed in the IVIS imager. The RDVs (containing siRNA) in PBS vehicle were tail vein injected in a volume of 0.2 mL. […] In vivo efficacy results are expressed as % inhibition of luminescence relative to pre-dose luminescence levels. […]

| SMILES | efficacy (% inhibition of luminescence) compared with RDV containing octyl-CLinDMA (OCD) |
| --- | --- |
| CCCCC/C=C\C/C=C\CCCCCCCCCC(CCCCCCCCC)N(C)C (centres unmarked) [Compound 1, (20Z,23Z)—N,N-dimethylnonacosa-20,23-dien-10-amine] | Greater efficacy |

The compounds below were run against T2, ApoE (Macaca mulatta, UniProt Q28502) (assay: In vitro ApoE binding assay (anti-PEG capture, ApoE ELISA, stem-loop RT-PCR)). Conditions: LNP 4 ug/mL in 90% rhesus serum, 37° C., 20 minutes; estimate of 500 siRNA per LNP.
T2 construct: from tissue; host or cells: rhesus serum
T2 sequence (Q28502 19-295): as above
Protocol: LNPs are incubated at 37° C. in 90% rhesus serum at a final LNP concentration of 4 ug/mL. Incubation is for 20 minutes with orbital rotation. After incubation, the samples are diluted 1:20 in PBS and 100 uL of each diluted sample is aliquoted to wells of an anti-PEG antibody coated 96-well plate (Life Diagnostics Cat. No. P-0001PL. After incubation at room temperature for 1 hour, the plate is washed 5× with 300 uL PBS. After washing, 50 uL of 0.2% Triton X-100 is added to each well and the plate incubated at 37° C. for 10 minutes, followed by shaking on a plate shaker for 1 minute at 750 rpm. Samples are frozen prior to performing the ApoE ELISA and stem loop PCR analysis of samples.
An ApoE ELISA assay is performed to quantitate ApoE bound to the LNPs after incubation in rhesus serum. Anti-ApoE antibody (Milipore, Cat No. AB947) is diluted 1:1000 in PBS and 100 uL of diluted antibody is added to each well of a polystyrene high binding plate. The plate with antibody is incubated overnight at 4° C., after which the plate is washed 2× with 200 uL of PBS. Next, 200 uL of buffer containing 1% BSA and 0.05% Tween-20 in PBS (Incubation Buffer) is added to each well followed by incubation at room temperature for 1 hour. Plates are washed 5× with PBS containing 0.05% Tween-20. Frozen Triton lysis test samples are thawed and diluted 1:6 with incubation buffer and 100 uL of test sample is aliquoted to wells of the ApoE antibody plate. Incubation is for 1 hour at room temperature followed by a 5× wash with PBS containing 0.05% Tween-20. After washing, 100 uL of biotinylated anti-ApoE antibody (Mabtech, Cat. ANo. E887-biotin), diluted 1:500 in incubation buffer, is added to each well and incubated for 1 hour at room temperature, followed by a 5× wash with 0.05% Tween-20 in PBS. 100 uL per well, of Streptavidin-HPR (Thermo, Cat. No. TS-125-HR), is then added and incubated for 1 hour at room temperature. After washing 5× with 0.05% Tween-20 in PBS, 100 uL of TMB Substrate (Thermo, Cat. No. 34028) is added to each well, followed by incubation at room temperature for 20 minutes in the dark. The calorimetric reaction is slopped with 100 uL of TMB Stop Solution (KPL, Cat. No. 50-85-04) and absorbance at 450 nm is determined. An ApoE standard curve is prepared by diluting rhesus Recombinant ApoE in incubation buffer with 0.03% Triton X-100 with concentrations ranging from 100 ng/mL to 0.78 ng/mL. ApoE standards are evaluated in the ELISA in parallel to the test samples. A rhesus serum only (no LNP) control is utilized to obtain a background subtraction for non-LNP dependent ApoE signal in the ELISA.
To normalize to the ApoE bound to the amount of LNP bound to the anti-PEG antibody plate, the amount of siRNA retained in the anti-PEG antibody well is quantitated by stem-loop PCR and related to the number of siRNAs encapsulated per LNP, to give an approximate measure of total LNP particles bound per well.
The standard curve is prepared using the molecular weight of the siRNA (13693 g/mol for ApoB 17063) to calculate the copy number. The high standard should contain 10^11 copies per 3 μl. A 10-fold serial dilution is performed across a row of an assay plate until the lowest standard contains 10^2 copies per 3 μl. Dilute 0.2% Triton X-100 1:80 in water and pipette 20 uL of the diluted Triton X-100 into 10 wells of a 96 well plate. 30 uL of the serial diluted standard curve and mix are added to each well of the plate. 10 uL of the spiked standard curve is used in the reverse transcription reaction.
Triton lysates from the PEG antibody plate capture are diluted 1 to 2000 in nuclease free water. 10 uL of ‘RT-Primer Mix’ (Applied Biosystem's TaqMan MicroRNA Reverse Transcription Kit Cat. No. 4366596) is added to each well of a 96-well Micro-Amp QPCR plate (ABI Cat #N801-0560).
[…] of each test sample (diluted 1 to 2000) or spiked standard curve (above) are aliquoted into the 96-well plate. […]

| SMILES | ApoE Molecules/LNP [Molecules/LNP] |
| --- | --- |
| CCCCC/C=C\C/C=C\CCCCCCCC(CCCCCCCCC)N(C)C (centres unmarked) [Compound 8, (18Z,21Z)—N,N-dimethylheptacosa-18,21-dien-10-amine] | 4.9 |
| CCCCC/C=C\C/C=C\CCCCCCCCCCCC(CCCCCCCC)N(C)C (centres unmarked) [Compound 16, (21Z,24Z)—N,N-dimethyltriaconta-21,24-dien-9-amine] | 3.3 |
| CCCCCCCCCCC/C=C\CCCCC(CCCCCCCCC)N(C)C (centres unmarked) [Compound 24, (15Z)—N,N-dimethylheptacos-15-en-10-amine] | 1.2 |
| CCCCCCCCCCCCCC/C=C\CCCC(CCCCCCCCC)N(C)C (centres unmarked) [Compound 25, (14Z)—N,N-dimethylnonacos-14-en-10-amine] | 13.7 |
| CCCCCCCC/C=C\CCCCCCCCCC(CCCCCCCCC)N(C)C (centres unmarked) [Compound 28, (20Z)—N,N-dimethylnonacos-20-en-10-amine] | 4.7 |

The remaining lines, values ahead:

| ApoE Molecules/LNP [Molecules/LNP] | SMILES |
| --- | --- |
| 38 | CCCCCCCC/C=C\CCCCCCCCCCCC(CCCCCCCCC)N(C)C (centres unmarked) [Compound 29, (22Z)—N,N-dimethylhentriacont-22-en-10-amine] |
| 2.3 | CCCCCCCCCC(CCCCCCCCC[C@H]1C[C@H]1CCCCCC)N(C)C (stereo partly drawn) [Compound 34, 1-[(1S,2R)-2-hexylcyclopropyl]-N,N-dimethylnonadecan-10-amine] |
| 32.5 | CCCCC/C=C\C/C=C\CCCCCCCCC1(CCCCCCCC/C=C\C/C=C\CCCCC)OCC(CCN(C)C)O1 (centres unmarked) [Compound 45, DLinKC2DMA, reference compound] |
